# Laboratory results as given in patent US8871755B2, “Alkene azetidine derivatives as sphingosine 1-phosphate (S1P) receptor modulators” (Allergan, Inc., priority 2013, dated 2014).
# Biological target: T1, human S1P1 receptor (Homo sapiens, UniProt P21453)
# T1 construct: expressed in transfected cells; membranes were used
# Experiment: GTP γ35S binding assay for S1P1 activity
# Format: biochemical
# Conditions: activity potency from GTP γ35S binding; membranes of cells stably expressing the S1P1 receptor; 30 min at 25° C.
# Procedure: Compounds were synthesized and tested for S1P1 activity using the GTP γ^35S binding assay. These compounds may be assessed for their ability to activate or block activation of the human S1P1 receptor in cells stably expressing the S1P1 receptor. […] binding was measured in the medium containing (mM) HEPES 25, pH 7.4, MgCl2 10, NaCl 100, dithitothreitol 0.5, digitonin 0.003%, 0.2 nM GTP γ^35S, and 5 μg membrane protein in a volume of 150 μl. Test compounds were included in the concentration range from 0.08 to 5,000 nM unless indicated otherwise. Membranes were incubated with 100 μM 5′-adenylylimmidodiphosphate for 30 min, and subsequently with 10 μM GDP for 10 min on ice. Drug solutions and membrane were mixed, and then reactions were initiated by adding GTP γ^35S and continued for 30 min at 25° C. Reaction mixtures were filtered over Whatman GF/B filters under vacuum, and washed three times with 3 mL of ice-cold buffer (HEPES 25, pH7.4, MgCl2 10 and NaCl 100). Filters were dried and mixed with scintillant, and counted for ^35S activity using a […]. Agonist-induced GTP γ^35S binding was obtained by subtracting that in the absence of agonist. Binding data were analyzed using a non-linear regression method. In case of antagonist assay, the reaction mixture contained 10 nM S1P in the presence of test antagonist at concentrations ranging from 0.08 to 5000 nM.
# T1 sequence (P21453 whole entry): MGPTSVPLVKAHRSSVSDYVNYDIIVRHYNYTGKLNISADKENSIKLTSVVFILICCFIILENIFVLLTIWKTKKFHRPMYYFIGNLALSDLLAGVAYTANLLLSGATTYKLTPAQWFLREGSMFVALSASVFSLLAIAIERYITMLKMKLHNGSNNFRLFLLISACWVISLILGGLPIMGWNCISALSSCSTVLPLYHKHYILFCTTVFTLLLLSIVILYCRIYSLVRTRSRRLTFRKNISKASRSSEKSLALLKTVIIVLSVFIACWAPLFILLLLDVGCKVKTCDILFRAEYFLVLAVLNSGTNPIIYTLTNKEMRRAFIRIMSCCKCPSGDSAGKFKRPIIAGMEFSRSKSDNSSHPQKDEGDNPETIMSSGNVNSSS
row,SMILES,EC50 [nM]
1,"Cc1ccc(C=C(CCCOc2ccc(CN3CC(C(=O)O)C3)cc2)c2ccsc2)cc1C [1-(4-{[5-(3,4-dimethylphenyl)-4-(3-thienyl)pent-4-en-1-yl]oxy}benzyl)azetidine-3-carboxylic acid]",36
2,"Cc1ccc(/C=C(\CCCOc2ccc(CN3CC(C(=O)O)C3)cc2)c2cccc(F)c2F)cc1C [Compound 1, 1-(4-{[(4E)-4-(2,3-Difluorophenyl)-5-(3,4-dimethylphenyl)pent-4-en-1-yl]oxy}benzyl)azetidine-3-carboxylic acid]",480
3,"Cc1ccc(/C=C(\CCCCSc2ccc(CN3CC(C(=O)O)C3)cc2)c2cc(F)cc(F)c2)cc1C [Compound 4, 1-(4-{[(5E)-5-(3,5-difluorophenyl)-6-(3,4-dimethylphenyl)hex-5-en-1-yl]sulfanyl}benzyl)azetidine-3-carboxylic acid]",652
4,"Cc1ccc(/C=C(\CCCOc2ccc(CN3CC(C(=O)O)C3)cc2)c2cccc(Cl)c2)cc1C [Compound 5, 1-(4-{[(4E)-4-(3-Chlorophenyl)-5-(3,4-dimethylphenyl)pent-4-en-1-yl]oxy}benzyl)azetidine-3-carboxylic acid]",27.9
5,"Cc1ccc(/C=C(\CCCOc2ccc(CN3CC(C(=O)O)C3)cc2)c2cc(F)cc(F)c2)cc1C [Compound 6, 1-(4-{[(4E)-4-(3,5-Difluorophenyl)-5-(3,4-dimethylphenyl)pent-4-en-1-yl]oxy}benzyl)azetidine-3-carboxylic acid]",4.21
6,Cc1ccc(/C=C(\CCC[S+]([O-])c2ccc(CN3CC(C(=O)O)C3)cc2)c2cc(F)cc(F)c2)cc1C (stereo not drawn) [Compound 7],158
